These results are taken from PubChem BioAssay (NCI).

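Assay format: 96-well plates, 48-hour exposure. TGI denotes the concentration required for complete inhibition of growth.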

The first assay concerns HCT-15 colon. The assay can be described thus: NCI tumour cell line growth inhibition, 48 h.
Consider `Cc1cn(C2CC(N(O)C(N)=O)C(CO)O2)c(=O)[nH]c1=O` (centres undefined), for which the TGI is > 100 µM.

With `O=[N+]([O-])/C(C(Cl)=C(Cl)Cl)=C(\SCc1ccccc1)N1CCCCC1`, the TGI came out at 49.7 µM.

For `CC1C=C(CCCCCCCCCCCC[C@@H](O)[C@@H]2CC[C@@H]([C@@H]3CC[C@@H](C(O)CCCCCCCCCCCCC4=C[C@H](C)OC4=O)O3)O2)C(=O)O1` (some centres undefined), the TGI is > 100 µM.

Consider `O=C1c2ccccc2C2C1N2C(=O)C(F)(F)F` (centres undefined), for which the TGI is > 100 µM.

As for `O=C(Cc1cccs1)N[C@@H]1C(=O)N2C(C(=O)OC(c3ccccc3)c3ccccc3)=C(CO)CS[C@H]12`, the TGI was > 100 µM.

As to `COc1ccc2c(=O)c(O)c(-c3ccc(OC)c(OC)c3)oc2c1`, the TGI is > 100 µM.

`CC(=O)NNc1nc(C)c(C(=O)NNC(=O)C(=O)Nc2c(Cl)cc([N+](=O)[O-])cc2Cl)s1`: the TGI was > 100 µM.

In the case of `N.N.N.N.O=[N+]([O-])[O-].[Co+3].[N-]=[N+]=[N-].[N-]=[N+]=[N-]`, the TGI is > 100 µM.

The subject of a further assay is MALME-3M melanoma. The assay can be described thus: NCI tumour cell line growth inhibition, 48 h.
Regarding `COc1cc([C@@H]2OCC3C(c4ccc5c(c4)OCO5)OCC32)cc(OC)c1OC` (some centres undefined), the TGI was > 100 µM.

As for `O=C1CCC23CC(C=CC=C12)n1c(=O)n(-c2ccccc2)c(=O)n13` (centres undefined), the TGI is > 100 µM.

Turning to `C[C@]12CC[C@H](O)CC1=CC[C@@H]1C2CC[C@]2(C)C(=O)N(N)C(=O)CC12` (some centres undefined), the TGI was > 100 µM.

Molecule `CC1(C)N=C(/C(Cl)=[N+](/[O-])C(=O)c2ccc(F)cc2)C(C)(C)N1O` registered a TGI of 30.8 µM.

In the case of `N#CN=C(N(Cc1ccccc1)Cc1ccccc1)N(Cc1ccccc1)Cc1ccccc1`, the TGI was > 100 µM.

In the case of `[N-]=[N+]=Nc1cc(=O)oc2ccccc12`, the TGI was > 100 µM.

For `CCOC(=O)N1CCC2(CC1)C[C@](C)(C(C)=O)C(C)O2` (some centres undefined), the TGI was > 100 µM.

As to `Cc1ccc(SCC(CSCCO)OCn2cnc3c2NC(N)=NC32OCCO2)cc1` (centres undefined), the TGI was > 100 µM.

As to `Cc1cccc2c(=O)cc(-c3ccccc3)[nH]c12`, the TGI is > 100 µM.

With `COc1cc([C@@H]2c3cc4c(cc3[C@@H](Nc3ccc([N+](=O)[O-])cc3C(=O)c3ccccc3)[C@H]3COC(=O)[C@H]23)OCO4)cc(OC)c1OC`, the TGI is > 100 µM.

For `CC(C)CCCCCCCCCCCCC(=O)NCC(=O)NC1C(C)OC(Nc2ncnc3c2ncn3C)C(O)C1O` (centres undefined), the TGI is > 100 µM.

In the case of `CCCCCCCCCCCOc1ccc(C(=O)C(=O)c2ccc(OCCCCCCCCCCC)c(OCCCCCCCCCCC)c2)cc1OCCCCCCCCCCC`, the TGI is > 100 µM.

On to `CC(N)Cc1ccc(C(=O)Cl)cc1` (centres undefined), for which the TGI was > 100 µM.

Take `CCC1(O)CC2CC(=O)OC2C1O` (centres undefined): the TGI is > 100 µM.

In the case of `Cc1cn(C2CC(N(O)C(N)=O)C(CO)O2)c(=O)[nH]c1=O` (centres undefined), the TGI was > 100 µM.

For `O=[N+]([O-])/C(C(Cl)=C(Cl)Cl)=C(\SCc1ccccc1)N1CCCCC1`, the TGI is 27.1 µM.

Molecule `COc1nc(N)c(C(=O)CCl)c(=O)n1C` returned a TGI of 22.7 µM.

On to `CC1C=C(CCCCCCCCCCCC[C@@H](O)[C@@H]2CC[C@@H]([C@@H]3CC[C@@H](C(O)CCCCCCCCCCCCC4=C[C@H](C)OC4=O)O3)O2)C(=O)O1` (some centres undefined), for which the TGI is > 100 µM.

On to `O=C1c2ccccc2C2C1N2C(=O)C(F)(F)F` (centres undefined), for which the TGI was > 100 µM.

For `O=C(Cc1cccs1)N[C@@H]1C(=O)N2C(C(=O)OC(c3ccccc3)c3ccccc3)=C(CO)CS[C@H]12`, the TGI is > 100 µM.

For `COc1ccc2c(=O)c(O)c(-c3ccc(OC)c(OC)c3)oc2c1`, the TGI was > 100 µM.

As to `CC(=O)NNc1nc(C)c(C(=O)NNC(=O)C(=O)Nc2c(Cl)cc([N+](=O)[O-])cc2Cl)s1`, the TGI is > 100 µM.

In the case of `N.N.N.N.O=[N+]([O-])[O-].[Co+3].[N-]=[N+]=[N-].[N-]=[N+]=[N-]`, the TGI was > 100 µM.

For a further assay, the system named is MOLT-4 leukemia. As to the kind of experiment: NCI tumour cell line growth inhibition, 48 h.
Consider `COc1cc([C@@H]2OCC3C(c4ccc5c(c4)OCO5)OCC32)cc(OC)c1OC` (some centres undefined), for which the TGI is > 100 µM.

Consider `O=C1CCC23CC(C=CC=C12)n1c(=O)n(-c2ccccc2)c(=O)n13` (centres undefined), for which the TGI is > 100 µM.

Take `C[C@]12CC[C@H](O)CC1=CC[C@@H]1C2CC[C@]2(C)C(=O)N(N)C(=O)CC12` (some centres undefined): the TGI is > 100 µM.

As to `O=C(O)c1cccc2c1/C(=N/Nc1ccccc1)CC2`, the TGI was > 100 µM.

Consider `N#CN=C(N(Cc1ccccc1)Cc1ccccc1)N(Cc1ccccc1)Cc1ccccc1`, for which the TGI was > 100 µM.

`[N-]=[N+]=Nc1cc(=O)oc2ccccc12`: the TGI was > 100 µM.

Turning to `CCOC(=O)N1CCC2(CC1)C[C@](C)(C(C)=O)C(C)O2` (some centres undefined), the TGI was > 100 µM.

`CNC(=O)C(C)C1CCC2(C)C=CC(=O)C(C)=C2C1O` (centres undefined): the TGI is > 100 µM.

As for `Cc1ccc(SCC(CSCCO)OCn2cnc3c2NC(N)=NC32OCCO2)cc1` (centres undefined), the TGI was > 100 µM.

For the molecule `Cc1cccc2c(=O)cc(-c3ccccc3)[nH]c12`, the TGI is > 100 µM.

With `COc1cc([C@@H]2c3cc4c(cc3[C@@H](Nc3ccc([N+](=O)[O-])cc3C(=O)c3ccccc3)[C@H]3COC(=O)[C@H]23)OCO4)cc(OC)c1OC`, the TGI was > 100 µM.

On to `CCN(CC)CCC(=O)Nc1ccc2c(c1)C(=O)c1ccc(NC(=O)CCN(CC)CC)cc1C2=O`, for which the TGI is 12.2 µM.

With `CC(C)CCCCCCCCCCCCC(=O)NCC(=O)NC1C(C)OC(Nc2ncnc3c2ncn3C)C(O)C1O` (centres undefined), the TGI is > 100 µM.

As for `CCCCCCCCCCCOc1ccc(C(=O)C(=O)c2ccc(OCCCCCCCCCCC)c(OCCCCCCCCCCC)c2)cc1OCCCCCCCCCCC`, the TGI is > 100 µM.

For the molecule `CC(N)Cc1ccc(C(=O)Cl)cc1` (centres undefined), the TGI is > 100 µM.

`CCC1(O)CC2CC(=O)OC2C1O` (centres undefined): the TGI was > 100 µM.

As for `Cc1cn(C2CC(N(O)C(N)=O)C(CO)O2)c(=O)[nH]c1=O` (centres undefined), the TGI was > 100 µM.

Consider `O=[N+]([O-])/C(C(Cl)=C(Cl)Cl)=C(\SCc1ccccc1)N1CCCCC1`, for which the TGI turned out to be 41.1 µM.

Turning to `COc1nc(N)c(C(=O)CCl)c(=O)n1C`, the TGI came out at 44.7 µM.

As for `CC1C=C(CCCCCCCCCCCC[C@@H](O)[C@@H]2CC[C@@H]([C@@H]3CC[C@@H](C(O)CCCCCCCCCCCCC4=C[C@H](C)OC4=O)O3)O2)C(=O)O1` (some centres undefined), the TGI is > 100 µM.

With `O=C1c2ccccc2C2C1N2C(=O)C(F)(F)F` (centres undefined), the TGI was > 100 µM.

For the molecule `O=C(Cc1cccs1)N[C@@H]1C(=O)N2C(C(=O)OC(c3ccccc3)c3ccccc3)=C(CO)CS[C@H]12`, the TGI was > 100 µM.

With `COc1ccc2c(=O)c(O)c(-c3ccc(OC)c(OC)c3)oc2c1`, the TGI was > 100 µM.

`CC(=O)NNc1nc(C)c(C(=O)NNC(=O)C(=O)Nc2c(Cl)cc([N+](=O)[O-])cc2Cl)s1`: the TGI worked out at 97.6 µM.

For the molecule `N.N.N.N.O=[N+]([O-])[O-].[Co+3].[N-]=[N+]=[N-].[N-]=[N+]=[N-]`, the TGI was > 100 µM.

The next assay has as its system NCI-H460 lung. The assay can be described thus: NCI tumour cell line growth inhibition, 48 h.
Consider `COc1cc([C@@H]2OCC3C(c4ccc5c(c4)OCO5)OCC32)cc(OC)c1OC` (some centres undefined), for which the TGI is > 100 µM.

With `O=C1CCC23CC(C=CC=C12)n1c(=O)n(-c2ccccc2)c(=O)n13` (centres undefined), the TGI was > 100 µM.

For `C[C@]12CC[C@H](O)CC1=CC[C@@H]1C2CC[C@]2(C)C(=O)N(N)C(=O)CC12` (some centres undefined), the TGI was > 100 µM.

On to `O=C(O)c1cccc2c1/C(=N/Nc1ccccc1)CC2`, for which the TGI is > 100 µM.

For `CC1(C)N=C(/C(Cl)=[N+](/[O-])C(=O)c2ccc(F)cc2)C(C)(C)N1O`, the TGI was > 100 µM.

With `N#CN=C(N(Cc1ccccc1)Cc1ccccc1)N(Cc1ccccc1)Cc1ccccc1`, the TGI is > 100 µM.

In the case of `[N-]=[N+]=Nc1cc(=O)oc2ccccc12`, the TGI is > 100 µM.

Consider `CCOC(=O)N1CCC2(CC1)C[C@](C)(C(C)=O)C(C)O2` (some centres undefined), for which the TGI is > 100 µM.
